20 molecules from patent publication US20230374017A1, “COMPOSITIONS AND METHODS FOR ACTIVATING PYRUVATE KINASE” (The Regents of the University of Michigan, priority 2020, published 2023) can be followed below.

Experiment [1] addresses T1, pyruvate kinase activity, 661W cell line (Mus musculus, UniProt P52480).
T1 construct: endogenous in cells; host or cells: 661W cell line
The experiment in a line: Pyruvate kinase activity in 661W cell lysates after 2 hours treatment. Conditions: 661W cells, 2 hours incubation, activity normalized to total protein; for Emax: read-out: Max Activation (cell). The class given is cell-based. As for the experimental part:
Cell culture. For 661W cell line experiments, media was replaced prior to the start of treatment with DMSO or ML-265. Cells were incubated with DMSO or different concentrations of ML-265 for 2 hours. Cells were lysed and homogenized in RIPA Lysis and Extraction Buffer (Catalog number: 89900, Life Technologies Corporation, Grand Island, NY) with protease inhibitors (Complete-Mini, Roche Diagnostics, Indianapolis, IN) and cellular debris was removed by centrifugation at 10,000 rpm for 10 minutes. Ten microliters of the supernatant was used to assess pyruvate kinase activity, and the activity was normalized to total protein content as previously described.

A further experiment deals with T2, human recombinant PKM2 (Homo sapiens, UniProt P14618).
T2 construct: purchased Sigma SAE0021
T2 sequence (P14618 whole entry): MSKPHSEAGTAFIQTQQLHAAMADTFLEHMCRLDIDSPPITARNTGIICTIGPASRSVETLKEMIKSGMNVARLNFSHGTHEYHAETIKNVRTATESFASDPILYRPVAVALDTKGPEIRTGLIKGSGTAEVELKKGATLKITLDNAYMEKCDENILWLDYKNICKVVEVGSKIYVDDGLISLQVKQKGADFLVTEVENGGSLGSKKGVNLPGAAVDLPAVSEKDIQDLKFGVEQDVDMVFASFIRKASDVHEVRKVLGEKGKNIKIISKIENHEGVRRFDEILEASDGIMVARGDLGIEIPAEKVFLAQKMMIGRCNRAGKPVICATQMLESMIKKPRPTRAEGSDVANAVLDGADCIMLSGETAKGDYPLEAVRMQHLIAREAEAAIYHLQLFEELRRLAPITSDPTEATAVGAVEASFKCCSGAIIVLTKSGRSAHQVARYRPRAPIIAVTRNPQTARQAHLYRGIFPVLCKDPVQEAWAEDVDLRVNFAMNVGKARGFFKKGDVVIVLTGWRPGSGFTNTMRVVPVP
The experiment in a line: Pyruvate kinase activity enzyme assay, recombinant enzyme (LDH-coupled, NADH depletion at 340 nm). It is filed as biochemical. As to conditions: normalized to DMSO-treated PKM2 activity; for EC50: recombinant PKM2 20 nM; for Max Activation / Emax: recombinant PKM2; for Emax: read-out: Max Activation. As for the experimental part:
Pyruvate Kinase Activity Enzyme Assay. Recombinant Enzyme. A continuous, enzyme-coupled assay, which uses lactate dehydrogenase (LDH) and measures the depletion of NADH via absorbance at 340 nm was utilized to determine the pyruvate kinase activity. For AC50 measurements (concentration of activator necessary to achieve half-maximal activation) with ML-265, assays were performed in 96-well format using 200 μL/well assay volume with final concentrations of 20 nM human recombinant PKM2 (Sigma, SAE0021), differing concentrations of ML-265, 0.5 mM PEP, 1 mM ADP, 0.2 mM NADH, and 8 U of lactate dehydrogenase (LDH) in an assay buffer of 50 mM Tris-HCl (pH 7.4), 100 mM KCl, and 5 mM MgCl2. The decrease in absorbance at 340 nm was monitored using a SPECTROstar Omega plate reader (BMG LABTECH Inc., Cary, NC, USA). Initial velocities were calculated with the MARS software. Data were normalized to DMSO (dimethyl sulfoxide)-treated PKM2 activity.

T1 sequence (P52480 whole entry): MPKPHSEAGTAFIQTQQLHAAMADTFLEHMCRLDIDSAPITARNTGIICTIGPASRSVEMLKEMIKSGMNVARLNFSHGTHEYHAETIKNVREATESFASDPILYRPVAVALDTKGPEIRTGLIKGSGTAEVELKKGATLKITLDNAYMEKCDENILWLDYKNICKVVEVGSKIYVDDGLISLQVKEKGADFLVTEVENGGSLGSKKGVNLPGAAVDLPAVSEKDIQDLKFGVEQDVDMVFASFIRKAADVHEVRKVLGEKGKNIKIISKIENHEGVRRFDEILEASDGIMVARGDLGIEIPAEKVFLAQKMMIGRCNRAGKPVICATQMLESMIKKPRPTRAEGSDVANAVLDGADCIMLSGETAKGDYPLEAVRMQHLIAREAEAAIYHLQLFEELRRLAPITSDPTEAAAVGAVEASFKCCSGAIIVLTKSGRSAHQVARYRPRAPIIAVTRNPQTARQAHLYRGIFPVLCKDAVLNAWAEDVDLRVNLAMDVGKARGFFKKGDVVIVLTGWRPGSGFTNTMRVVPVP

As a reminder, the EC50 is the midpoint of the concentration-response curve. On to “3-((1H-pyrazol-3-yl)methyl)-7-41H-pyrazolo[4,3-c]pyridin-4-yl)oxy)-5-methyl-3,5-dihydro-4H-pyridazino[4,5-b]indol-4-one [Example 87]”, for which, in experiment [1], it took 95 nM to reach a half-maximal effect (EC50) and the “Max Activation (cell)” value was found to be 317%. Further, at human recombinant PKM2, the 50% effective concentration (EC50) is 50 nM and the “Max Activation” value came out at 270%.
Take `Cc1ccc2c3cnn(Cc4ccccc4)c(=O)c3n(C)c2c1` [Example 1, 3-Benzyl-5,7-dimethyl-3,5-dihydro-4H-pyridazino[4,5-b]indol-4-one]: the EC50 in experiment [1] was determined as 15 nM; at human recombinant PKM2, 117 nM. For the same molecule, the Emax in experiment [1] came out at 431%; on human recombinant PKM2, 212%.
On to `COc1ccc(Cn2ncc3c4ccc(C)cc4n(C)c3c2=O)cc1` [Example 2, 3-(4-Methoxybenzyl)-5,7-dimethyl-3,5-dihydro-4H-pyridazino[4,5-b]indol-4-one], for which, on human recombinant PKM2, the EC50 was 106 nM and the Emax is 90%.
Consider `Cc1ccc2c3cnn(Cc4cccc(N)c4)c(=O)c3n(C)c2c1` [Example 3, 3-(3-Aminobenzyl)-5,7-dimethyl-3,5-dihydro-4H-pyridazino[4,5-b]indol-4-one], for which the half-maximal effective concentration (EC50) in experiment [1] amounted to 28 nM; on human recombinant PKM2, 428 nM. For the same molecule, the Emax in experiment [1] came to 310%; on human recombinant PKM2 it was 193%.
In the same order, the values of `CSc1ccc2c3cnn(Cc4ccccc4)c(=O)c3n(C)c2c1` [Example 4, 3-Benzyl-5-methyl-7-(methylthio)-3,5-dihydro-4H-pyridazino[4,5-b]indol-4-one] are 22 nM, 527 nM, 309% and 267%.
Take `Cn1c2cc([S+](C)[O-])ccc2c2cnn(Cc3ccccc3)c(=O)c21` (stereo not drawn) [Example 5, 3-Benzyl-5-methyl-7-(methylsulfinyl)-3,5-dihydro-4H-pyridazino[4,5-b]indol-4-one]: in experiment [1], the midpoint of the response, the EC50, lay at 13 nM and the Emax stood at 295%. Further, at human recombinant PKM2, the EC50 turned out to be 192 nM and the Emax was determined as 226%.
In the same order, the values of `Cn1c2cc([S+](C)[O-])ccc2c2cnn(Cc3cccc(N)c3)c(=O)c21` (stereo not drawn) [Example 7, 3-(3-Aminobenzyl)-5-methyl-7-(methylsulfinyl)-3,5-dihydro-4H-pyridazino[4,5-b]indol-4-one] are 18 nM, 355%, 63 nM and 222%.
On the same counts, the results for `COc1ccc2c3cnn(Cc4cccc(N)c4)c(=O)c3n(C)c2c1` [Example 8, 3-(3-Aminobenzyl)-7-methoxy-5-methyl-3,5-dihydro-4H-pyridazino[4,5-b]indol-4-one] are 25 nM, 324%, 117 nM and 271%.
In the case of `COc1ccc2c3cnn(Cc4cn5ccccc5n4)c(=O)c3n(C)c2c1` [Example 11, 3-(Imidazo[1,2-a]pyridin-2-ylmethyl)-7-methoxy-5-methyl-3,5-dihydro-4H-pyridazino[4,5-b]indol-4-one], on human recombinant PKM2, the half-maximal effective concentration (EC50) worked out at 110 nM and the Emax is 170%.
In the same order, the values of `COc1ccc2c3cnn(Cc4ccc5ncccc5c4)c(=O)c3n(C)c2c1` [Example 12, 7-Methoxy-5-methyl-3-(quinolin-6-ylmethyl)-3,5-dihydro-4H-pyridazino[4,5-b]indol-4-one] are 131 nM and 123%.
Take `Cn1c2cc(O)ccc2c2cnn(Cc3cccc(N)c3)c(=O)c21` [Example 15, 3-(3-Aminobenzyl)-7-hydroxy-5-methyl-3,5-dihydro-4H-pyridazino[4,5-b]indol-4-one]: the concentration for a half-maximal effect (EC50) in experiment [1] worked out at 124 nM; at human recombinant PKM2, 40 nM. Further, the Emax in experiment [1] worked out at 296%; on human recombinant PKM2, 254%.
On the same counts, the results for `Cc1cc2c3cnn(Cc4ccccc4F)c(=O)c3n(C)c2s1` [Example 16, 6-(2-Fluorobenzyl)-2,8-dimethyl-6,8-dihydro-7H-thieno[3′,2′:4,5]pyrrolo[2,3-d]pyridazin-7-one] are 58 nM, 40 nM, 279% and 231%.
In the same order, the values of `Cc1ccc2c3cnn(Cc4cccc(F)c4)c(=O)c3n(C)c2n1` [Example 18, 7-(3-fluorobenzyl)-2,9-dimethyl-7,9-dihydro-8H-pyrido[3′,2′:4,5]pyrrolo[2,3-d]pyridazin-8-one] are 23 nM, 41 nM, 292% and 264%.
In the same order, the values of `COc1cc2c(cc1F)c1cnn(Cc3cccc(N)c3)c(=O)c1n2C` [Example 20, 3-(3-aminobenzyl)-8-fluoro-7-methoxy-5-methyl-3,5-dihydro-4H-pyridazino[4,5-b]indol-4-one] are 67 nM, 15 nM, 229% and 199%.
For `Cn1c2cc(O)c(F)cc2c2cnn(Cc3cccc(N)c3)c(=O)c21` [Example 21, 3-(3-aminobenzyl)-8-fluoro-7-hydroxy-5-methyl-3,5-dihydro-4H-pyridazino[4,5-b]indol-4-one], the concentration for a half-maximal effect (EC50) in experiment [1] came to 75 nM; at human recombinant PKM2, 25 nM. Further, the Emax in experiment [1] was 273%; at human recombinant PKM2 it was 299%.
Turning to `COc1cccc2c3cnn(Cc4cccc(N)c4)c(=O)c3n(C)c12` [Example 23, 3-(3-aminobenzyl)-6-methoxy-5-methyl-3,5-dihydro-4H-pyridazino[4,5-b]indol-4-one], the results for the half-maximal effective concentration (EC50) (in experiment [1]; on human recombinant PKM2) were 33 nM and 22 nM, respectively. Further, the Emax in experiment [1] was 288%; at human recombinant PKM2 it was 196%.
`COc1ccc2c(c1)c1cnn(Cc3cccc(N)c3)c(=O)c1n2C` [Example 27, 3-(3-aminobenzyl)-8-methoxy-5-methyl-3,5-dihydro-4H-pyridazino[4,5-b]indol-4-one]: at human recombinant PKM2, the EC50 came to 26 nM and the Emax is 307%.
On to `COc1cc2c(cc1F)c1cnn(Cc3cccc(C)n3)c(=O)c1n2C` [Example 52, 8-fluoro-7-methoxy-5-methyl-3-((6-methylpyridin-2-yl)methyl)-3,5-dihydro-4H-pyridazino[4,5-b]indol-4-one], for which, in experiment [1], the EC50 came to 66 nM and the Emax turned out to be 305%. On human recombinant PKM2, the EC50 turned out to be 97 nM and the Emax turned out to be 225%.
Turning to `COc1cc2c(cc1F)c1cnn(Cc3cccc(N)c3)c(=O)c1n2C` [Example 53, 3-(3-aminobenzyl)-8-fluoro-7-methoxy-5-methyl-3,5-dihydro-4H-pyridazino[4,5-b]indol-4-one], in experiment [1], a half-maximal response (EC50) required 37 nM and the “Max Activation (cell)” value was 229%. Besides, on human recombinant PKM2, the EC50 turned out to be 15 nM and the “Max Activation” value was determined as 199%.
In the same order, the values of `Cn1c2cc(O)c(F)cc2c2cnn(Cc3cccc(N)c3)c(=O)c21` [Example 54, 3-(3-aminobenzyl)-8-fluoro-7-hydroxy-5-methyl-3,5-dihydro-4H-pyridazino[4,5-b]indol-4-one] are 75 nM, 273%, 53 nM and 299%.
